Laboratory results published in patent US7265220B2, “Amino acid derivatives, method for production thereof and pharmaceutical compositions comprising said derivative” (Les Laboratories Servier, priority 2002, dated 2007).
Where a name gives a salt, the structure may show the parent alone.

Key:
Type in all cases: biochemical
[1] = target: T1, purified human activated protein C (Homo sapiens, UniProt P04070); assay: Inhibition of purified human activated protein C, chromogenic substrate S2366; details: activated protein C 2 nM, inhibitor preincubated 20° C., 30 minutes, substrate pyroGlu-Pro-Arg-pNA 0.39 mM, read at 405 nm; read-out: IC50 with respect to activated protein C
T1 construct: purchased Diagnostica Stago
T1 sequence (P04070 212-461 limits assumed): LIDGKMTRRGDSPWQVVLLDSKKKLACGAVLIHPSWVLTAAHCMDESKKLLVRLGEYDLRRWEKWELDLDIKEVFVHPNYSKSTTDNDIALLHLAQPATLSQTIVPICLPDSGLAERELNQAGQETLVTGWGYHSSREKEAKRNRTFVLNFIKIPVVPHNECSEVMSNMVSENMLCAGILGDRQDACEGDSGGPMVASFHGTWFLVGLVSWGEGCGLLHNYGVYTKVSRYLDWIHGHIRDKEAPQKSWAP
T1 sequence (P04070 43-197 limits assumed): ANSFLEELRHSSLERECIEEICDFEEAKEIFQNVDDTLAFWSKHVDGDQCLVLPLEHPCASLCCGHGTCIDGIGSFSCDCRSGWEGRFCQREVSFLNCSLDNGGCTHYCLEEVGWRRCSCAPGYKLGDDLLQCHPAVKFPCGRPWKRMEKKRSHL
Description: (§1) The inhibitors, enzymes and substrates are diluted in the same buffer (0.01 mM phosphate buffer pH 7.4 containing 0.12M sodium chloride and 0.05% bovine serum albumin in the case of thrombin and 50 mM TRIS-HCl buffer pH 7.4 containing 0.12M sodium chloride, 3 mM calcium chloride and 0.05% bovine serum albumin in the case of activated protein C and plasmin) and then dispensed in a volume of 50 μl onto a polystyrene microplate.

purified human plasmin = target: T2, purified human plasmin (Homo sapiens, UniProt P00747); assay: Inhibition of purified human plasmin, chromogenic substrate S2403 (selectivity); details: plasmin 2 nM, substrate <Glu-Phe-Lys-pNA 0.37 mM, read at 405 nm; read-out: IC50 with respect to plasmin
T2 construct: purified human plasmin (2 nM, Stago); purchased Stago
T2 sequence (P00747 581-810 limits assumed): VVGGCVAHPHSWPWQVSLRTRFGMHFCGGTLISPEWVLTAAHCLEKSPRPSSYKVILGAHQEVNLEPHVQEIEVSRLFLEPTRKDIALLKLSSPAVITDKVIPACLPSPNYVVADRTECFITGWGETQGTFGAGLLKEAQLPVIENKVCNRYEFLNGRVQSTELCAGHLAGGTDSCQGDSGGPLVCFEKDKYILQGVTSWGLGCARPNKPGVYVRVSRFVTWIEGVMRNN
T2 sequence (P00747 97-580 limits assumed): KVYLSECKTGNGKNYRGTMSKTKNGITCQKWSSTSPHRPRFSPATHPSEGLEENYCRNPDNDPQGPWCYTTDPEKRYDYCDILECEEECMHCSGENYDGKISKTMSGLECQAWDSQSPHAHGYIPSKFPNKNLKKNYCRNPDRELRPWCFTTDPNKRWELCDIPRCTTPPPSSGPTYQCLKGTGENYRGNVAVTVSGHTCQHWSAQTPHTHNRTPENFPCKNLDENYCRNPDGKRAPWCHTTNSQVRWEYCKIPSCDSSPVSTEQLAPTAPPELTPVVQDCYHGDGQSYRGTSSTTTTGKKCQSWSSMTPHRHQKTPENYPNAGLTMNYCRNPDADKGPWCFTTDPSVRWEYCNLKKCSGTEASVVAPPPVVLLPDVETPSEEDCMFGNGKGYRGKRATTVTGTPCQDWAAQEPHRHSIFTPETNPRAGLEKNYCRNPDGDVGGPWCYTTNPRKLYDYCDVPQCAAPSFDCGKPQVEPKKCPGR
Description: In order to assess in vitro the inhibitory activity of products of the invention on purified human activated protein C (Diagnostica Stago), the chromogenic substrate pyroGlu-Pro-Arg-pNA (0.39 mM, S2366, Chromogenix) was added to a given amount of activated protein C (2 nM) previously incubated with or without the inhibitor under test (20° C., 30 minutes).
In order to assess in vitro the selectivity with respect to thrombin and plasmin, the same protocol was applied to purified human thrombin (0.7 nM, Sigma) and to purified human plasmin (2 nM, Stago), using as substrates purified human fibrinogen (6 μM, Enzyme Research Laboratories) and the paracitroanilide peptide <Glu-Phe-Lys-pNA (0.37 mM, S2403, Chromogenix), respectively.
The inhibitors, enzymes and substrates are diluted in the same buffer ([…] phosphate buffer pH 7.4 containing 0.12M sodium chloride and 0.05% bovine serum albumin in the case of thrombin and 50 mM TRIS-HCl buffer pH 7.4 containing 0.12M sodium chloride, 3 mM calcium chloride and 0.05% bovine serum albumin in the case of activated protein C and plasmin) and then dispensed in a volume of 50 μl onto a polystyrene microplate.
The paranitroanilide liberated or the fibrin formed by the action of the serine protease is measured spectrophotometrically at 405 nm after reacting for from 10 to 30 minutes at 20° C.

purified human thrombin = purified human thrombin (Homo sapiens, UniProt P00734); assay: Inhibition of purified human thrombin, fibrinogen substrate (selectivity); details: thrombin 0.7 nM, substrate human fibrinogen 6 μM, fibrin formed read at 405 nm; read-out: IC50 with respect to thrombin
Description: as §1

IC50 [1]: 820 nM
IC50 (purified human plasmin): 1100 nM
IC50 (purified human thrombin): > 33000 nM
Structure (SMILES): N=C(N)c1ccc(CNC(=O)C2(NC(=O)[C@H](NCC(=O)O)C3CCCCC3)Cc3ccccc3C2)cc1 [Example 1, {[(1R)-2-({2-[({4-Amidinobenzyl}-amino)-carbonyl]-indan-2-yl}-amino)-1-cyclohexyl-2-oxoethyl]-amino}acetic acid hydrochloride]
